In paper PMC10388794 (Journal of Enzyme Inhibition and Medicinal Chemistry, 2023):

Columns and labels:
[1] = system: Aβ1–42-induced cognitive impairment in mice; experiment: Morris water maze in Aβ1–42-induced cognitive impairment model; format: in vivo; conditions: T14-A24 10 mg/kg po, donepezil 15 mg/kg po
[2] = biological target: recombinant human AChE (hAChE) (Homo sapiens, UniProt P22303); experiment: hAChE inhibition assay; format: biochemical; conditions: read-out: hAChE inhibition rate % at 20 µM
recombinant human AChE (hAChE), sequence (P22303 32-614): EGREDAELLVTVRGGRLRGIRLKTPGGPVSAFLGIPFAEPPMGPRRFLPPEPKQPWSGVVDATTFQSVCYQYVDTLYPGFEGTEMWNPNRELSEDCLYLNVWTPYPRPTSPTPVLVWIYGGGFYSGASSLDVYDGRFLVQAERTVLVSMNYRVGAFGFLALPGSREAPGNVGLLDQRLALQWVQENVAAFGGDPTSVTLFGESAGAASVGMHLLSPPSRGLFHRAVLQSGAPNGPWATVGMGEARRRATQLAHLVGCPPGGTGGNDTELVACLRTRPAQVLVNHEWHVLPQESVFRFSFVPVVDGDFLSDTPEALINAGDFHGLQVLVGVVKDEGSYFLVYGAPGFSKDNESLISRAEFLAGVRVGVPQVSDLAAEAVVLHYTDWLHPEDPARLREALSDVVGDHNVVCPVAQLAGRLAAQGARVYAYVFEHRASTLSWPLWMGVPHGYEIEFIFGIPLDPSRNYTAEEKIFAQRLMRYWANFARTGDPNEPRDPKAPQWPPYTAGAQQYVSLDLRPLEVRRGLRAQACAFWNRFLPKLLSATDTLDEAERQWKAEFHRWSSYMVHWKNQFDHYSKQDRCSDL

SMILES	Aβ1–42-induced cognitive dysfunction (Morris water maze) [1]	inhibition at 20 µM [2] [%]
COc1cc2c(cc1OC)C(=O)C(CC1CCN(Cc3ccccc3)CC1)C2 (centres unmarked) [Donepezil]	significantly improved	–
CCN(C)C(=O)Oc1cccc([C@H](C)N(C)C)c1 [Rivastigmine]	–	16.5 ± 0.8
